Key:
[1] = Inhibitory activity against LPS-stimulated IL1-beta release by cultured human monocytes at a concentration 1000 nM; format: functional
Caspase-1 = target: T1, Caspase-1 (Homo sapiens, UniProt P29466); test: Inhibitory activity against IL-1 beta converting enzyme was evaluated.
T1 sequence (P29466 whole entry): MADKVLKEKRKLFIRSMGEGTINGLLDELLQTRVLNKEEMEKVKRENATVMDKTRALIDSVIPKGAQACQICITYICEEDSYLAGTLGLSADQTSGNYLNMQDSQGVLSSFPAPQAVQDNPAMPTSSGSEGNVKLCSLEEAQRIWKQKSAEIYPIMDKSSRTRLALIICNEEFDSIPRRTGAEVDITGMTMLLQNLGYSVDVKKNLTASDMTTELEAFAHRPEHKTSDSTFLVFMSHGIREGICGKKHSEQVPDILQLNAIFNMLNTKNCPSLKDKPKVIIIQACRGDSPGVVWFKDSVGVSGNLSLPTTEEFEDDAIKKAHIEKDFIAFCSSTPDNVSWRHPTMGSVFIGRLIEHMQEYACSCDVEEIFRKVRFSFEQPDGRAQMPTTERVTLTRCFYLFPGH

[2] = Inhibitory activity against LPS-stimulated 1L-1beta release by cultured human monocytes; format: functional
Rattus norvegicus = test: Compound was tested for reduction of streptococcal cell wall(SCW) in rats at a dose of 0.67 mg/kg; format: functional

SMILES	IC50 [2] [nM]	further results
COC(=O)[C@]1(C)CC[C@]2(C)CC[C@]3(C)C4=CCc5c(cc(OC)c(OC)c5C)[C@]4(C)CC[C@@]3(C)[C@@H]2C1	–	inhibition at 1 µM [1]: 8%
O=C1C=CC(=O)C=C1 [BENZOQUINONE]	–	IC50 (Caspase-1): 3000 nM
CC1=C(O)C(=O)C=C2C1=CC=C1[C@@]2(C)CC[C@@]2(C)[C@@H]3C[C@](C)(C(=O)O)CC[C@]3(C)CC[C@]12C [CELASTROL]	40	–
COc1ccc2c(c1)c(CC(=O)O)c(C)n2C(=O)c1ccc(Cl)cc1 [INDOMETHACIN]	–	SCW reduction (Rattus norvegicus): 70%
COC(=O)[C@]1(C)CC[C@]2(C)CC[C@]3(C)C4=CC=C5C(=CC(=O)C(O)=C5C)[C@]4(C)CC[C@@]3(C)[C@@H]2C1 [PRISTIMERIN]	56	–
COC(=O)[C@]1(C)CC[C@]2(C)CC[C@]3(C)C4=CCc5c(cc(OC(C)=O)c(OC(C)=O)c5C)[C@]4(C)CC[C@@]3(C)[C@@H]2C1 [PRISTIMEROL DIACETATE]	79	–
COC(=O)[C@]1(C)CC[C@]2(C)CC[C@]3(C)C4=CCc5c(cc(O)c(O)c5C)[C@]4(C)CC[C@@]3(C)[C@@H]2C1 [PRISTIMEROL]	260	–
CC1=C(O)C(=O)C=C2C1=CC=C1[C@@]2(C)CC[C@@]2(C)[C@@H]3C[C@@H](C)C(=O)C[C@]3(C)CC[C@]12C [TINGENONE]	58	–

Source: ChEMBL document CHEMBL1130892, “Novel cytokine release inhibitors. Part I: Triterpenes” (Bioorg Med Chem Lett, 1998)
